Assay results reported in PMC11686366 (Nature Communications, 2024).

Tests used:
human SLC19A2 = target: T1, human SLC19A2 (Homo sapiens, UniProt O60779); assay: Microscale thermophoresis; format: binding; settings: MST
T1 sequence (O60779 1-497): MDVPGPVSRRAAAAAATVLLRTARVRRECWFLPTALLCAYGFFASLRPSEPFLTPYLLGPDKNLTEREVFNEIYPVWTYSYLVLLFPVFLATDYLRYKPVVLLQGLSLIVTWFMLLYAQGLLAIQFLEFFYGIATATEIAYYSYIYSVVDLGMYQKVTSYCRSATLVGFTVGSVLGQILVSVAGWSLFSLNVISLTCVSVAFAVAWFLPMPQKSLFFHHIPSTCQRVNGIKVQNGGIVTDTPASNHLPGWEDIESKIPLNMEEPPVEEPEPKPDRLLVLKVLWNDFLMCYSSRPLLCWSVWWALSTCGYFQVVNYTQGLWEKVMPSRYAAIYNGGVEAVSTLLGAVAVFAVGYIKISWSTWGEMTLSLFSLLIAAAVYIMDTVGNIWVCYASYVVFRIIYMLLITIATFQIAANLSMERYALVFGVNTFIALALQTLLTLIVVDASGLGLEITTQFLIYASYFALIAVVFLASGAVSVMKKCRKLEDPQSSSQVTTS

human SLC19A3 = target: T2, human SLC19A3 (Homo sapiens, UniProt Q9BZV2); assay: Microscale thermophoresis; format: binding; settings: for Kd: MST
T2 sequence (Q9BZV2 1-496): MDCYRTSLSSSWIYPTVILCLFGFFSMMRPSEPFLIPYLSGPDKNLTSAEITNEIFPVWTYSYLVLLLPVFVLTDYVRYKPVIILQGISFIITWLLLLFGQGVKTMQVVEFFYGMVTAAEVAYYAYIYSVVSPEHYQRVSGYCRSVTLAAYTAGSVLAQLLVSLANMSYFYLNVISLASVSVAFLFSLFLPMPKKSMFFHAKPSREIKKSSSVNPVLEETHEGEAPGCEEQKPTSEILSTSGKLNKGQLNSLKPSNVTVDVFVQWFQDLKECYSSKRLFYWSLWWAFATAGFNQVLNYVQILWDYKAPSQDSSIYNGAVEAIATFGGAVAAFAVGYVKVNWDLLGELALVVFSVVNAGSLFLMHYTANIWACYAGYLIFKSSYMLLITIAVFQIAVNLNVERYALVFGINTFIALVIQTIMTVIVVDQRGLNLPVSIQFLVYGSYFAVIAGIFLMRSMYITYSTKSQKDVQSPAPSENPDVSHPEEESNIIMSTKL

[1] = test system: thiamine transporters (SLC19A2 and SLC19A3); format: cell-based, human
[2] = pyridoxine, bipolar molecule; cited from earlier work

SMILES	Inhibition of 3H-thiamine uptake (in words) [1]	further results
Cc1ncc(C[n+]2csc(CCO)c2C)c(N)n1 [thiamine]	–	Kd (human SLC19A2; pH 6.0): ~1200 nM; Kd (human SLC19A2; pH 7.5): ~78400 nM; Kd (human SLC19A3; pH 6.0): ~250 nM; Kd (human SLC19A3; pH 7.5): ~154000 nM
Cc1cc(C#N)cc(C)c1Oc1nc(Nc2ccc(C#N)cc2)nc(N)c1Br [etravirine]	inhibitor	–
Cc1ncc(CO)c(CO)c1O [pyridoxine]	–	pKa (lower value) [2]: 5.6
CN(C)C(=N)N=C(N)N [metformin]	inhibitory effects	Affinity (in words) (human SLC19A3; Supplementary Fig. 12 / 11b): millimolar affinity
CCN1CCN(Cc2ccc(Nc3ncc(F)c(-c4cc(F)c5nc(C)n(C(C)C)c5c4)n3)nc2)CC1 [abemaciclib]	inhibitor	–
COc1cc(Cc2cnc(N)nc2N)cc(OC)c1OC [trimethoprium]	inhibitory effects	–
Cc1cnc(Nc2ccc(OCCN3CCCC3)cc2)nc1Nc1cccc(S(=O)(=O)NC(C)(C)C)c1 [fedratinib]	inhibitory effects	–
CCCc1ncc(C[n+]2ccccc2C)c(N)n1 [amprolium]	inhibitory effects	Kd (human SLC19A3; pH 6.0): ~450 nM
CCc1nc(N)nc(N)c1-c1ccc(Cl)cc1 [pyrimethamine]	inhibitory effects	–
Cc1ncc(C[n+]2csc(CCO)c2C)c(=O)[nH]1 [oxythiamine]	inhibitory effects	–
N#CCNC(=O)c1ccc(-c2ccnc(Nc3ccc(N4CCOCC4)cc3)n2)cc1 [momelotinib]	inhibitory effects	–
